Data reported in patent US7872027B2, “Low molecular weight Myc-max inhibitors” (University of Pittsburgh - Of the Commonwealth System of …, priority 2006, dated 2011).
pIC50: −log10 of the molar value.

Legend:
[1] = test system: HL60 human promyelocytic leukemia cells; assay: HL60 cell growth inhibition (trypan blue cell counts); type: cell-based
Description: Note that all structures shown herein are drawn in their Z-isoform and some bonds have been standardized. IC50's here, as well as below for in FIGS. 2 and 3, were calculated based upon dose-response profiles on day 5 following the addition of each compound.
HL60 human promyelocytic leukemia cells were grown in RPMI medium supplemented with 10% fetal calf serum, 100 U/ml penicillin G, and 100 μg/ml streptomycin (all from Mediatech, Inc., Herndon, Va.). Rat fibroblast lines were grown under similar conditions in Dulbecco's modified minimal essential medium. To determine the effects of Myc-Max compounds on HL60 cell growth, logarithmically growing cells (>90% viability) were resuspended in fresh medium. Four (4) ml (a total of 16,000 cells) were then seeded into 6-well plates in the presence of the indicated amount of Myc-Max compound. In all cases, 10058-F4 was included as a reference compound. Daily cell counts were performed manually in triplicate on a hemacytometer using trypan blue exclusion. Viabilities exceeded 85% throughout the course of the experiment.
Each compound was initially tested for its ability to inhibit the growth of the HL60 human promyelocytic leukemia cell line, which expresses high levels of c-Myc as a result of gene amplification (Park S—H, et al. Methods Mol Biol 2004; 261:161-165 (2004)). […]

c-Myc-Max(S) heterodimer = biological target: T1, c-Myc-Max(S) heterodimer (Homo sapiens, UniProt P01106); assay: electrophoretic mobility shift assay (EMSA), E-box DNA binding; type: biochemical; settings: 60 nM each protein, 10 nM oligonucleotide
T1 construct: human Myc residues 353-439 with a GGCD extension at the C terminus; His6 (TEV-cleavable) (cleaved yes); made in house; host or cells: E. coli BL21DE3(plysS) for c-Myc; E. coli M15(pRep4) for Max
Description: (§1) Equivalent amounts of nuclear extracts were incubated with the indicated concentrations of the compounds depicted in FIGS. 1-3. Following precipitation of the complexes with an anti-Max antibody, the total amount of associated c-Myc was detected by immunoblotting (top panel). As a control, the lower portion of the blot was probed with an anti-Max antibody (bottom panel). FIGS. 4B, 4C and 4D show EMSAs results. Recombinant c-Myc353-439 (which encodes the complete bHLH-ZIP dimerization domain) and full-length Max(S) were purified to homogeneity from E. coli and used at a final concentration of 60 nM in the presence of the indicated concentration of compound.
Electrophoretic mobility shift Assays (EMSAs). Experiments were performed on 8% polyacrylamide:bis-acrylamide (80:1) gels in 0.5×TBE. […]
and was synthesized by Integrated DNA Technologies Inc (Coralville, Iowa). […] Data were analyzed with BioRad Quantity One software.
The second method used to gauge the effects of 10058-F4 and its analogs on c-Myc-Max complexes relied on the use of a simple, three component electrophoretic mobility shift assay (EMSA). […] The ability of the resultant heterodimer to bind a double-stranded target oligonucleotide containing a consensus E-box motif was then assessed by PAGE. […]

c-Myc-Max complexes = biological target: T2, c-Myc-Max complexes (Homo sapiens, UniProt P01106); assay: co-immunoprecipitation of c-Myc and Max from HL60 nuclear extracts; type: biochemical; settings: 30° C. for 30 min
T2 construct: endogenous in cells; host or cells: HL60 nuclear extract
Description: as §1
Nuclei from HL60 cells were prepared essentially as described previously (17). Briefly, approximately 4×10^7 washed nuclei were resuspended in 1 ml of ice cold buffer F, which contained 150 mM NaCl; 10 mM Tris-HCl, pH 7.1; 30 mM sodium pyrophosphate; 5 μM ZnCl2; 0.1% Nonidet P-40; 0.1 mM Na3VO4; 1 mM PMSF; 2.5 U/ml each of pepstatin, leupeptin, and approtinin. All reagents were from Sigma-Aldrich (St. Louis, Mo.). […]
10058-F4 analogs interfere directly with c-Myc-Max heterodimerization and DNA binding. […] To address this, the effect of each compound on c-Myc-Max association was determined in vitro by two different methods. […] The total amount of co-precipitating c-Myc protein was then assessed by immunoblotting. […]

T2 sequence (P01106 whole entry, one chain of several): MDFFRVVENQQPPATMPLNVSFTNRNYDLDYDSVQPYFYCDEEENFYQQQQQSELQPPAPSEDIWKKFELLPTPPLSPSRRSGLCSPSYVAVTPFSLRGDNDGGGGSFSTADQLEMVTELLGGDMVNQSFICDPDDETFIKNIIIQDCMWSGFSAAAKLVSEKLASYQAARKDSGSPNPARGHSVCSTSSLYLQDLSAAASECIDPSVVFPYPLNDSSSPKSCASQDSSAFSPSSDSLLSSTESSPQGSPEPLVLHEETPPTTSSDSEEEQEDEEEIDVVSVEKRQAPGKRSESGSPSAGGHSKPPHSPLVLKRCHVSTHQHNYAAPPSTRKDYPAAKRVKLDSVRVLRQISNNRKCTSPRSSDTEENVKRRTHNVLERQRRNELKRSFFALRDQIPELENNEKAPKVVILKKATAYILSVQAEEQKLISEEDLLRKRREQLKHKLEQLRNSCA
T1 sequence (P01106 368-454, one chain of several): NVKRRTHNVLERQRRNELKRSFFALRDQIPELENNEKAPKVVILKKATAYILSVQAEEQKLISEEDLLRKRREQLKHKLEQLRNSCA

Structure (SMILES)	pIC50 ([1]; Homo sapiens, HL-60, 120 h, dose-response profiles on day 5 following addition of compound, read-out: ID50, HL60 cell growth)	inhibition of E-box DNA binding by c-Myc-Max(S) (c-Myc-Max(S) heterodimer)	dissociation of c-Myc from Max (co-IP with anti-Max antibody) (c-Myc-Max complexes)	activity in HL60 cells compared with 10058-F4 ([1]; 10058-F4 in parallel)
CCc1ccc(C=C2SC(=S)NC2=O)cc1 [Compound 10058-F4, (Z,E)-5-(4-ethylbenzylidene)-2-thioxothiazolidin-4-one]	4.29	dose-dependent, although variable, inhibition	promoted the dissociation of c-Myc from Max	
CC(C)c1ccc(/C=C2\SC(=S)N(CN3CCCCC3)C2=O)cc1 [Compound 28RH-NCN-1]				activities comparable to that of 10058-F4
